This note sets out measurements from BindingDB's records for doi:10.1016/j.bmcl.2003.10.030 (Pfizer, 2003).

For the first assay, the target named is Vascular endothelial growth factor receptor 1 (Homo sapiens, UniProt P17948). The assay is described as follows: ChEBML_213951. An excerpt: Inhibitory activity against Vascular endothelial growth factor receptor
Vascular endothelial growth factor receptor 1, sequence (P17948 whole entry): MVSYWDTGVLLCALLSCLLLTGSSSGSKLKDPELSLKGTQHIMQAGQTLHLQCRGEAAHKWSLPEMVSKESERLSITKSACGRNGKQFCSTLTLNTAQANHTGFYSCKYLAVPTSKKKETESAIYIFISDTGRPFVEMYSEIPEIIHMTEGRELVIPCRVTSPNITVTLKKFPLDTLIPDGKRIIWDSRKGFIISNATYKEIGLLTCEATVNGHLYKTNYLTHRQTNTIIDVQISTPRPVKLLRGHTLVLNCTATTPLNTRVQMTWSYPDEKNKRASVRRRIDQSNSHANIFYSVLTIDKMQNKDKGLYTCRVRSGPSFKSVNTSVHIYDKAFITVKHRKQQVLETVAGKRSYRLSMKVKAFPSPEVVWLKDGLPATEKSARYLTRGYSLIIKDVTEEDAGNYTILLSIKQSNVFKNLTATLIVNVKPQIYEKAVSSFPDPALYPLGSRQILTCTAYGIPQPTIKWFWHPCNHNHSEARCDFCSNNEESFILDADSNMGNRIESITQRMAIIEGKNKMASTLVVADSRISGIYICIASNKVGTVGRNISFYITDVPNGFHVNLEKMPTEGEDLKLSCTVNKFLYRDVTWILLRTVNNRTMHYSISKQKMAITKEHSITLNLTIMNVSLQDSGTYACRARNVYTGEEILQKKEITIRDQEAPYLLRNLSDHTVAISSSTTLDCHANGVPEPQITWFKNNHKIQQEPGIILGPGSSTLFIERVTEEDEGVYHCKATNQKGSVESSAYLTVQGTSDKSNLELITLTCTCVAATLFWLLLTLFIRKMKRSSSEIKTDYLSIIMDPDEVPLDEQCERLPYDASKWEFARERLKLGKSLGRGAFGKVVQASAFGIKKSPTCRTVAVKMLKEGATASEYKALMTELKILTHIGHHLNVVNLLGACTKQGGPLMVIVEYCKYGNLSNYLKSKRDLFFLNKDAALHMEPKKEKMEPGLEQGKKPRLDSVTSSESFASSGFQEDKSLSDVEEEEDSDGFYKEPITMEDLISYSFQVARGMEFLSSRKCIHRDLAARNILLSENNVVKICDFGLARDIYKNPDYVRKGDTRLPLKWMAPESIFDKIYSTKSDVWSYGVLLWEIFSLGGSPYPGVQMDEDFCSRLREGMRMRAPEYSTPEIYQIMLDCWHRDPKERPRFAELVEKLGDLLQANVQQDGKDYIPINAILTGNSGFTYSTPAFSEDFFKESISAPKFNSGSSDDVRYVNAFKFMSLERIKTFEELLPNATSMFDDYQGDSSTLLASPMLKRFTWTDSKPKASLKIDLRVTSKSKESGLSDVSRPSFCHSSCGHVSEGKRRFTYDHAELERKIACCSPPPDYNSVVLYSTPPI
The IC50 is the concentration that inhibits the measured activity by half. Compound `c1csc(-c2cc3ncnc(Nc4ccc5[nH]ccc5c4)c3s2)c1` [(1H-Indol-5-yl)-(6-thiophen-2-yl-thieno[3,2-d]pyrimidin-4-yl)-amine] had an IC50 of 130 nM.

Biological target in a further assay: not listed separately
The assay is described as follows: Inhibitory activity against Vascular endothelial growth factor receptor.
The compound `OCCNCc1ccc(-c2cc3nccc(Nc4ccc5[nH]ccc5c4)c3s2)cc1` [2-{4-[7-(1H-Indol-5-ylamino)-thieno[3,2-b]pyridin-2-yl]-benzylamino}-ethanol] showed an IC50 of 6 nM.
`O=C(c1ccccc1)c1cc2ncnc(Nc3ccc4[nH]ccc4c3)c2s1` [[4-(1H-Indol-5-ylamino)-thieno[3,2-d]pyrimidin-6-yl]-phenyl-methanone]: 770 nM corresponded to half-maximal inhibition (IC50).
With `CC(=O)NCCNCc1ccc(-c2cc3ncnc(Nc4ccc5[nH]ccc5c4)c3s2)cc1` [N-(2-{4-[4-(1H-Indol-5-ylamino)-thieno[3,2-d]pyrimidin-6-yl]-benzylamino}-ethyl)-acetamide], 4 nM corresponded to half-maximal inhibition (IC50).
Regarding `NC(=O)c1ccc(Nc2ncnc3cc(-c4ccccc4)sc23)cc1` [4-(6-Phenyl-thieno[3,2-d]pyrimidin-4-ylamino)-benzamide], inhibition was half-maximal at 250 nM (IC50).
The compound `Cc1cc2cc(Nc3ccnc4cc(-c5ccc(CNCCOCCO)cc5)sc34)ccc2[nH]1` [2-(2-{4-[7-(2-Methyl-1H-indol-5-ylamino)-thieno[3,2-b]pyridin-2-yl]-benzylamino}-ethoxy)-ethanol] showed an IC50 of 5 nM.
With `Cn1ccc2cc(Nc3ncnc4cc(-c5ccccc5)sc34)ccc21` [(1-Methyl-1H-indol-5-yl)-(6-phenyl-thieno[3,2-d]pyrimidin-4-yl)-amine], the IC50 was above 2500 nM.
Take `Brc1cc2ncnc(Nc3ccc4[nH]ccc4c3)c2s1` [(6-Bromo-thieno[3,2-d]pyrimidin-4-yl)-(1H-indol-5-yl)-amine]: the IC50 is 220 nM.
On the same count and under the same terms, under `c1ccc(CNc2ncnc3cc(-c4ccccc4)sc23)cc1` [Benzyl-(6-phenyl-thieno[3,2-d]pyrimidin-4-yl)-amine] stands above 2500 nM.
On to `Cc1cc2cc(Nc3ccnc4cc(-c5ccc(CNCCCO)cc5)sc34)ccc2[nH]1` [3-{4-[7-(2-Methyl-1H-indol-5-ylamino)-thieno[3,2-b]pyridin-2-yl]-benzylamino}-propan-1-ol], for which the midpoint of inhibition, the IC50, lay at 5 nM.
For `Nc1ncnc2cc(-c3ccccc3)sc12` [6-Phenyl-thieno[3,2-d]pyrimidin-4-ylamine], the IC50 was above 1250 nM.
As for `CN(C)c1ccc(Nc2ncnc3cc(-c4ccccc4)sc23)cc1` [N,N-Dimethyl-N'-(6-phenyl-thieno[3,2-d]pyrimidin-4-yl)-benzene-1,4-diamine], the IC50 is 500 nM.
`NCc1ccc(-c2cc3ncnc(Nc4ccc5[nH]ccc5c4)c3s2)cc1` [[6-(4-Aminomethyl-phenyl)-thieno[3,2-d]pyrimidin-4-yl]-(1H-indol-5-yl)-amine] gave an IC50 of 18 nM.
In turn, `c1csc(-c2cc3nccc(Nc4ccc5[nH]ccc5c4)c3s2)c1` [(1H-Indol-5-yl)-(2-thiophen-2-yl-thieno[3,2-b]pyridin-7-yl)-amine] displayed an IC50 of 132 nM.
`Cc1cc2cc(Nc3ccnc4cc(-c5ccc(CN(C)CCO)cc5)sc34)ccc2[nH]1` [2-(Methyl-{4-[7-(2-methyl-1H-indol-5-ylamino)-thieno[3,2-b]pyridin-2-yl]-benzyl}-amino)-ethanol]: the IC50 was determined as 3 nM.
The same measure, in the same setting: the figure for `c1ccc(-c2cc3ncnc(Nc4ccc5[nH]ncc5c4)c3s2)cc1` [(1H-Indazol-5-yl)-(6-phenyl-thieno[3,2-d]pyrimidin-4-yl)-amine] is 620 nM; for `c1ccc(-c2cc3ncnc(Nc4ccc5nn[nH]c5c4)c3s2)cc1` [(1H-Benzotriazol-5-yl)-(6-phenyl-thieno[3,2-d]pyrimidin-4-yl)-amine] it is 470 nM; for `c1nc(Nc2ccc3[nH]ccc3c2)c2sccc2n1` [(1H-Indol-5-yl)-thieno[3,2-d]pyrimidin-4-yl-amine] it is 1410 nM.
On to `Cc1cc2cc(Nc3ccnc4cc(-c5ccc(CN6CCOCC6)cc5)sc34)ccc2[nH]1` [(2-Methyl-1H-indol-5-yl)-[2-(4-morpholin-4-ylmethyl-phenyl)-thieno[3,2-b]pyridin-7-yl]-amine], for which 5 nM corresponded to half-maximal inhibition (IC50).
For `c1ccc(NCCN(c2cc3ncnc(Nc4ccc5[nH]ccc5c4)c3s2)n2cccc2)cc1` [N*4*-(1H-Indol-5-yl)-N*6*-(2-phenylamino-ethyl)-N*6*-pyrrol-1-yl-thieno[3,2-d]pyrimidine-4,6-diamine], the midpoint of inhibition, the IC50, lay at 43 nM.
As to `c1cc(Nc2ccc3[nH]ccc3c2)c2sc(-c3ccc(CN4CCOCC4)cc3)cc2n1` [(1H-Indol-5-yl)-[2-(4-morpholin-4-ylmethyl-phenyl)-thieno[3,2-b]pyridin-7-yl]-amine], the midpoint of inhibition, the IC50, lay at 5 nM.
Same read-out and setting: the figure for `OCCCNCc1ccc(-c2cc3nccc(Nc4ccc5[nH]ccc5c4)c3s2)cc1` [3-{4-[7-(1H-Indol-5-ylamino)-thieno[3,2-b]pyridin-2-yl]-benzylamino}-propan-1-ol] is 4 nM.
As to `Cc1cc2cc(Nc3ccnc4cc(-c5ccc(CNCCO)cc5)sc34)ccc2[nH]1` [2-{4-[7-(2-Methyl-1H-indol-5-ylamino)-thieno[3,2-b]pyridin-2-yl]-benzylamino}-ethanol], the IC50 worked out at 4 nM.
The compound `CCCNC(=O)c1cc2ncnc(Nc3ccc4[nH]ccc4c3)c2s1` [4-(1H-Indol-5-ylamino)-thieno[3,2-d]pyrimidine-6-carboxylic acid propylamide] registered an IC50 of 2000 nM.
In the case of `CC(C)(CO)NCc1ccc(-c2cc3ncnc(Nc4ccc5[nH]ccc5c4)c3s2)cc1` [2-{4-[4-(1H-Indol-5-ylamino)-thieno[3,2-d]pyrimidin-6-yl]-benzylamino}-2-methyl-propan-1-ol], the midpoint of inhibition, the IC50, lay at 25 nM.
`CC(=O)NCCNCc1ccc(-c2cc3nccc(Nc4ccc5[nH]ccc5c4)c3s2)cc1` [N-(2-{4-[7-(1H-Indol-5-ylamino)-thieno[3,2-b]pyridin-2-yl]-benzylamino}-ethyl)-acetamide] showed an IC50 of 24 nM.
The same measure, in the same setting: under `Cc1c[nH]c2ccc(Nc3ncnc4cc(-c5ccccc5)sc34)cc12` [(3-Methyl-1H-indol-5-yl)-(6-phenyl-thieno[3,2-d]pyrimidin-4-yl)-amine] stands 290 nM; under `c1ccc(Nc2ccc(Nc3ncnc4cc(-c5ccccc5)sc34)cc2)cc1` [N-Phenyl-N'-(6-phenyl-thieno[3,2-d]pyrimidin-4-yl)-benzene-1,4-diamine], 390 nM.
`CNc1ccc(Nc2ncnc3cc(-c4ccccc4)sc23)cc1` [N-Methyl-N'-(6-phenyl-thieno[3,2-d]pyrimidin-4-yl)-benzene-1,4-diamine]: the IC50 was 190 nM.
On the same count and under the same terms, under `Cc1cc2cc(Nc3ncnc4cc(-c5ccccc5)sc34)ccc2[nH]1` [(2-Methyl-1H-indol-5-yl)-(6-phenyl-thieno[3,2-d]pyrimidin-4-yl)-amine] stands 140 nM.
`OCc1ccc(-c2cc3ncnc(Nc4ccc5[nH]ccc5c4)c3s2)cc1` [{4-[4-(1H-Indol-5-ylamino)-thieno[3,2-d]pyrimidin-6-yl]-phenyl}-methanol]: the IC50 amounted to 56 nM.
`CN(CCO)Cc1ccc(-c2cc3nccc(Nc4ccc5[nH]ccc5c4)c3s2)cc1` [2-({4-[7-(1H-Indol-5-ylamino)-thieno[3,2-b]pyridin-2-yl]-benzyl}-methyl-amino)-ethanol] showed an IC50 of 4 nM.
As to `O=C(Cc1cc2ncnc(Nc3ccc4[nH]ccc4c3)c2s1)c1ccccc1` [2-[4-(1H-Indol-5-ylamino)-thieno[3,2-d]pyrimidin-6-yl]-1-((E)-phenyl)-ethenol], the IC50 was determined as 2210 nM.

Biological target in a further assay: not listed separately
The assay is described as above. The source holds these as a separate data set.
`c1ccc(CCCN(c2cc3ncnc(Nc4ccc5[nH]ccc5c4)c3s2)n2ccnc2)cc1` [N*6*-Imidazol-1-yl-N*4*-(1H-indol-5-yl)-N*6*-(3-phenyl-propyl)-thieno[3,2-d]pyrimidine-4,6-diamine]: the IC50 is 4 nM.
`c1ccc(-c2cc3ncnc(Nc4ccc5[nH]ccc5c4)c3s2)cc1` [(1H-Indol-5-yl)-(6-phenyl-thieno[3,2-d]pyrimidin-4-yl)-amine]: half-maximal inhibition (IC50) was put at 48 nM.
